Test results taken from PMC11250030, “Strategic Single-Residue Substitution in the Antimicrobial Peptide Esc(1–21) Confers Activity against Staphylococcus aureus, Including Drug-Resistant and Biofilm Phenotype” (ACS Infectious Diseases, 2024).
Values after ≈ are worked out from the molar mass of the structure shown. Read-outs that look alike come from different tables or passages of the source. Where a SMILES comes first, the peptide text is derived from it. [ ]: non-standard residue; d: D form. Aib = CC(C)(N)C(=O)O

Columns and labels:
HaCaT cells = tested on: HaCaT cells; design: method as in PMID 26162435; details: previously described; cited from earlier work
S. aureus MDR #3 = tested on: S. aureus MDR #3
Procedure: (§1) Antimicrobial susceptibility was evaluated by the broth microdilution assay to determine the MIC as already described by Buommino et al.[71] The bacterial suspension in Muller Hinton (MH) at a concentration of 2 × 10^6 cell/mL in the mid-log phase was prepared. Aliquots of 50 μL of the bacterial suspension were added to 50 μL of MH containing serial 2-fold dilutions of the peptides (from 100 to 0.78 μM) that were previously prepared in a 96-well plate. […] Each measurement was performed in triplicate. MICs were obtained from three identical readings of four independent experiments. The antibiofilm activity of the tested peptides was evaluated as reported by Casciaro et al.[72] Microbial culture was grown at 37 °C until it reached an optical density (OD) of 0.8 (λ = 590 nm), and then it was diluted to a cell density of 1 × 10^6 colony-forming units (CFUs)/mL.

P. aeruginosa ATCC 25853 = tested on: P. aeruginosa ATCC 25853
Procedure: as §1

A. baumannii ATCC 19606 = tested on: A. baumannii ATCC 19606
Procedure: as §1

S. aureus MDR #4 = tested on: S. aureus MDR #4
Procedure: as §1

E. coli ATCC 25922 = tested on: E. coli ATCC 25922
Procedure: as §1

S. aureus MDR #1 = tested on: S. aureus MDR #1
Procedure: as §1

S. aureus MDR #2 = tested on: S. aureus MDR #2
Procedure: as §1

[1] = tested on: S. epidermidis ATCC 12228
Procedure: as §1

S. aureus ATCC 25923 = tested on: S. aureus ATCC 25923
Procedure: as §1

in vitro = in vitro ADME, bovine; details: serum
Procedure: The proteolytic stability of peptide 2 was evaluated in bovine serum (ThermoFisher Scientific, Milan, Italy). Peptide 2 was dissolved in sterile water (200 μM) and incubated with 50% bovine serum at 37 °C. The reaction mixture was incubated at different time intervals (1, 3, 4, 5, 16, and 24 h). An aliquot of the mixture was taken at each pre-established time point and MeCN was added to precipitate serum proteins. Then, the mixture was cooled to 4 °C, centrifuged for 15 min ([…]), and then the supernatant was checked by HPLC using a Phenomenex Jupiter column (4 μm Proteo 90 Å 250 × 21.20 mm) with a linear gradient of MeCN (0.1% TFA) and H2O (0.1% TFA) from 10 to 90% in 20 min and with a flow rate of 1 mL/min.[73] The percentage of the nondegraded peptide was calculated by integrating the peak area of each HPLC chromatogram. Data points are the mean ± SD of three different experiments.

[2] = MDR clinical isolate 13667073, broth microdilution, 16–18 h at 37 °C, three identical readings of four independent experiments
[3] = MDR clinical isolate 13164462, broth microdilution, 16–18 h at 37 °C, three identical readings of four independent experiments

MIC (S. aureus MDR #2; MDR #2) | MIC (S. aureus ATCC 25923; ATCC 25923) | MIC (S. aureus MDR #3; MDR #3) | MIC (S. aureus MDR #1; MDR #1) | SMILES | lethal dose causing 50% killing (LD50) (HaCaT cells) | MIC (S. aureus MDR #3; [2]) | MIC (P. aeruginosa ATCC 25853) | MIC (A. baumannii ATCC 19606) | MIC (S. aureus MDR #4) | MIC (E. coli ATCC 25922) | MIC (S. aureus MDR #1; [3]) | MIC [1] | remaining at 1 h, 200 μM (in vitro) | remaining at 3 h, 200 μM (in vitro) | remaining at 4 h, 200 μM (in vitro) | remaining at 5 h, 200 μM (in vitro) | remaining at 16 h, 200 μM (in vitro) | remaining at 24 h, 200 μM (in vitro) | MIC (S. aureus MDR #2; MDR clinical isolate 13165968, broth microdilution, 16–18 h at 37 °C, three identical readings of four independent experiments) | MIC (S. aureus ATCC 25923; broth microdilution, Muller Hinton, 16–18 h at 37 °C, three identical readings of four independent experiments)
 |  |  |  | CC[C@H](C)[C@H](NC(=O)CN)C(=O)N[C@@H](Cc1ccccc1)C(=O)N[C@@H](CO)C(=O)N[C@@H](CCCCN)C(=O)N[C@@H](CC(C)C)C(=O)N[C@@H](C)C(=O)NC(C)(C)C(=O)N[C@@H](CCCCN)C(=O)N[C@@H](CCCCN)C(=O)N[C@H](C(=O)N[C@@H](CCCCN)C(=O)N[C@@H](CC(N)=O)C(=O)N[C@@H](CC(C)C)C(=O)N[C@@H](CC(C)C)C(=O)N[C@H](C(=O)N[C@@H](CO)C(=O)NCC(=O)N[C@@H](CC(C)C)C(=O)N[C@@H](CCCCN)C(=O)NCC(N)=O)[C@@H](C)CC)[C@@H](C)CC [peptide 2] (H-GIFSKLA[Aib]KKIKNLLISGLKG-NH2) |  | 12.5 µM (≈ 27.7 µg/mL) | 3.12 µM (≈ 6.9 µg/mL) | 0.78 µM (≈ 1.73 µg/mL) | 6.25 µM (≈ 13.8 µg/mL) | 0.78 µM (≈ 1.73 µg/mL) | 12.5 µM (≈ 27.7 µg/mL) | 0.78 µM (≈ 1.73 µg/mL) | ~90% | ~75% | ~65% | ~40% | ~40% | ~15% | 12.5 µM (≈ 27.7 µg/mL) | 12.5 µM (≈ 27.7 µg/mL)
>100 µM | >100 µM | >100 µM | >100 µM | CC[C@H](C)[C@H](NC(=O)CN)C(=O)N[C@@H](Cc1ccccc1)C(=O)N[C@@H](CO)C(=O)N[C@@H](CCCCN)C(=O)N[C@@H](CC(C)C)C(=O)N[C@@H](C)C(=O)N1CCC[C@H]1C(=O)N[C@@H](CCCCN)C(=O)N[C@@H](CCCCN)C(=O)N[C@H](C(=O)N[C@@H](CCCCN)C(=O)N[C@@H](CC(N)=O)C(=O)N[C@@H](CC(C)C)C(=O)N[C@@H](CC(C)C)C(=O)N[C@H](C(=O)N[C@@H](CO)C(=O)NCC(=O)N[C@@H](CC(C)C)C(=O)N[C@@H](CCCCN)C(=O)NCC(N)=O)[C@@H](C)CC)[C@@H](C)CC [peptide 3] (H-GIFSKLAPKKIKNLLISGLKG-NH2) |  |  | 6.25 µM (≈ 13.9 µg/mL) | 1.56 µM (≈ 3.47 µg/mL) | >100 µM | 3.12 µM (≈ 6.94 µg/mL) |  | 6.25 µM (≈ 13.9 µg/mL) |  |  |  |  |  |  |  | 
>100 µM | >100 µM | >100 µM | >100 µM | CC[C@H](C)[C@H](NC(=O)CN)C(=O)N[C@@H](Cc1ccccc1)C(=O)N[C@@H](CO)C(=O)N[C@@H](CCCCN)C(=O)N[C@@H](CC(C)C)C(=O)N[C@@H](C)C(=O)N1CCC[C@@H]1C(=O)N[C@@H](CCCCN)C(=O)N[C@@H](CCCCN)C(=O)N[C@H](C(=O)N[C@@H](CCCCN)C(=O)N[C@@H](CC(N)=O)C(=O)N[C@@H](CC(C)C)C(=O)N[C@@H](CC(C)C)C(=O)N[C@H](C(=O)N[C@@H](CO)C(=O)NCC(=O)N[C@@H](CC(C)C)C(=O)N[C@@H](CCCCN)C(=O)NCC(N)=O)[C@@H](C)CC)[C@@H](C)CC [peptide 4] (H-GIFSKLA[dP]KKIKNLLISGLKG-NH2) |  |  | 25 µM (≈ 55.6 µg/mL) | 12.5 µM (≈ 27.8 µg/mL) | >100 µM | 6.25 µM (≈ 13.9 µg/mL) |  | 12.5 µM (≈ 27.8 µg/mL) |  |  |  |  |  |  |  | 

SMILES | MIC (S. aureus MDR #2; MDR #2) | MIC (S. aureus ATCC 25923; ATCC 25923) | MIC (S. aureus MDR #3; MDR #3) | MIC (S. aureus MDR #1; MDR #1) | lethal dose causing 50% killing (LD50) (HaCaT cells) | MIC (S. aureus MDR #3; [2]) | MIC (P. aeruginosa ATCC 25853) | MIC (A. baumannii ATCC 19606) | MIC (S. aureus MDR #4) | MIC (E. coli ATCC 25922) | MIC (S. aureus MDR #1; [3]) | MIC [1] | remaining at 1 h, 200 μM (in vitro) | remaining at 3 h, 200 μM (in vitro) | remaining at 4 h, 200 μM (in vitro) | remaining at 5 h, 200 μM (in vitro) | remaining at 16 h, 200 μM (in vitro) | remaining at 24 h, 200 μM (in vitro) | MIC (S. aureus MDR #2; MDR clinical isolate 13165968, broth microdilution, 16–18 h at 37 °C, three identical readings of four independent experiments) | MIC (S. aureus ATCC 25923; broth microdilution, Muller Hinton, 16–18 h at 37 °C, three identical readings of four independent experiments)
CC[C@H](C)[C@H](NC(=O)CN)C(=O)N[C@@H](Cc1ccccc1)C(=O)N[C@@H](CO)C(=O)N[C@@H](CCCCN)C(=O)N[C@@H](CC(C)C)C(=O)N[C@@H](C)C(=O)NCC(=O)N[C@@H](CCCCN)C(=O)N[C@@H](CCCCN)C(=O)N[C@H](C(=O)N[C@@H](CCCCN)C(=O)N[C@@H](CC(N)=O)C(=O)N[C@@H](CC(C)C)C(=O)N[C@@H](CC(C)C)C(=O)N[C@H](C(=O)N[C@@H](CO)C(=O)NCC(=O)N[C@@H](CC(C)C)C(=O)N[C@@H](CCCCN)C(=O)NCC(N)=O)[C@@H](C)CC)[C@@H](C)CC [peptide 1] (H-GIFSKLAGKKIKNLLISGLKG-NH2) | 100 µM (≈ 218 µg/mL) | >100 µM |  |  | > 50 µM | 100 µM (≈ 218 µg/mL) | 3.12 µM (≈ 6.82 µg/mL) | 1.56 µM (≈ 3.41 µg/mL) | >100 µM | 1.56 µM (≈ 3.41 µg/mL) | >100 µM | 3.12 µM (≈ 6.82 µg/mL) |  |  |  |  |  |  |  | 
